{"source": "patent US20250282828A1", "about": "“PEPTIDES FOR THE TREATMENT OF RESPIRATORY INFECTIONS OF VIRAL ORIGIN” (CENTRO DE INGENIERÍA GENÉTICA Y BIOTECNOLOGÍA, priority 2020, published 2025)", "key": {"Dengue 2 virus": {"tested_on": "Dengue 2 virus", "assay": "Dengue 2 virus replication in primary cultures of lung cells (PFU in VeroE6)", "type": "cell-based", "conditions": "100 μM, 48 hours", "method": "The cultures were treated with the peptides for 2 or 24 hours, at concentrations of 0.01 to 100 μM before viral challenge. The medium was discarded and the cells were infected with Dengue 2 virus, at an MOI of 10 for 2 hours at 37° C. and 5% CO2. The virus was eliminated, a wash was then performed and the cultures were treated again with peptides in DMEM medium, and incubated for 48 hours at 37° C. and 5% CO2. Subsequently, the cultures were collected to assess viral performance on VeroE6 cells. For this, the cells were seeded in 24-well plates and when they reached confluence they were infected with serial 10-fold dilutions of the supernatants, incubated for 1 hour at 37° C. and 5% CO2. Next, a wash was carried out with PBS, and a layer of agar in 2× DMEM (1:1) added. The layer was allowed to solidify and incubated for 48 hours at 37° C. 5% CO2. The plates were stained with crystal violet, for the determination of the number of PFUs. The peptides inhibited between 68 and 88% of viral replication (Table 5)."}, "SARS-CoV-2": {"tested_on": "SARS-CoV-2", "assay": "Treatment of patients infected by SARS-CoV-2 (RT-qPCR of nasopharyngeal swabs)", "type": "in vivo, human", "conditions": "for SARS-CoV-2 negative patients/Total: chloroquine", "method": "Human studies were conducted in accordance with the Declaration of Helsinki. […] The peptide was administered subcutaneously. The presence of SARS-CoV-2 viral RNA was determined by RT-qPCR (Roche) in nasopharyngeal swabs of the patients every 48 or 96 hours during 15 days. Four groups were formed, each with 20 patients, all in the initial stage of the disease and with similar characteristics. Group 1 patients received the most frequently used treatment in COVID-19 therapy based on Kaletra (Lopinavir/Ritonavir), chloroquine, and Heberon™ Alpha R (IFN α2b). Group 2 received this treatment, plus the peptide identified in the Sequence Listing as SEQ ID NO: 1. The latter was administered subcutaneously, at 2 mg/Kg of weight for 5 days. Group 3 patients received treatment based on Kaletra, chloroquine and a combined formulation of intramuscular IFN a2b (3.0 million international units, MIU) and IFN y (0.5 MIU). Patients in group 4 received the same treatment as Group 3, plus the peptide identified in the Sequence Listing as SEQ ID NO: 1 (2 mg/Kg of weight), subcutaneously for 5 days."}, "NS1-D2 (Dengue)": {"target": "T1, NS1-D2 (Dengue) (Dengue virus type 2, UniProt P29990)", "T1 construct": "the non-structural protein 1 of the Dengue virus 2 (NS1-D2)", "T1 sequence (P29990 776-1127 limits assumed)": "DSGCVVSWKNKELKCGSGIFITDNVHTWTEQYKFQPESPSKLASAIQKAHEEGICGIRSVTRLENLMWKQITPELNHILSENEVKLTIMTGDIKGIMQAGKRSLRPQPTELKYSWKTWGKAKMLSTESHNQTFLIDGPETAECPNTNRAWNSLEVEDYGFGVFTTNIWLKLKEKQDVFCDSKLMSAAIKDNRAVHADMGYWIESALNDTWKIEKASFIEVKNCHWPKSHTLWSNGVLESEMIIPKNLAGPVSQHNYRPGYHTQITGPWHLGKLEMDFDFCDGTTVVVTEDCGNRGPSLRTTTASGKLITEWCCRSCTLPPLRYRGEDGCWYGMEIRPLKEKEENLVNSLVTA", "assay": "BIACORE surface plasmon resonance interaction with immobilized peptide", "type": "binding, Dengue virus 2"}, "Protein N (SARS-CoV-2)": {"target": "Protein N (SARS-CoV-2) (Severe acute respiratory syndrome coronavirus 2, UniProt P0DTC9)", "assay": "BIACORE surface plasmon resonance interaction with immobilized peptide", "type": "binding"}}, "note": "No end group written: not given here.", "data": [{"sequence": "RVTQMNLNDRLASLYDKV [SEQ ID NO: 1]", "values": [{"measurement": "Dengue 2 Inhib. %", "setting": "Dengue 2 virus", "value": 81, "unit": "%"}, {"measurement": "SARS-CoV-2 negative patients/Total", "setting": "SARS-CoV-2; day 2, Groups 3/4: Kaletra, IFN a2b + IFN y without/with peptide 2 mg/Kg s.c. 5 days", "value": "0/20"}, {"measurement": "SARS-CoV-2 negative patients/Total", "setting": "SARS-CoV-2; day 2 after treatment onset, Groups 1/2: Kaletra, Heberon Alpha R without/with peptide 2 mg/Kg s.c. 5 days", "value": "0/20"}, {"measurement": "SARS-CoV-2 negative patients/Total", "setting": "SARS-CoV-2; day 4, Groups 1/2: Kaletra, Heberon Alpha R without/with peptide 2 mg/Kg s.c. 5 days", "value": "16/20"}, {"measurement": "SARS-CoV-2 negative patients/Total", "setting": "SARS-CoV-2; day 4, Groups 3/4: Kaletra, IFN a2b + IFN y without/with peptide 2 mg/Kg s.c. 5 days", "value": "17/20"}, {"measurement": "SARS-CoV-2 negative patients/Total", "setting": "SARS-CoV-2; day 6, Groups 1/2: Kaletra, Heberon Alpha R without/with peptide 2 mg/Kg s.c. 5 days", "value": "20/20"}, {"measurement": "SARS-CoV-2 negative patients/Total", "setting": "SARS-CoV-2; day 6, Groups 3/4: Kaletra, IFN a2b + IFN y without/with peptide 2 mg/Kg s.c. 5 days", "value": "20/20"}, {"measurement": "SARS-CoV-2 negative patients/Total", "setting": "SARS-CoV-2; day 10, Groups 1/2: Kaletra, Heberon Alpha R without/with peptide 2 mg/Kg s.c. 5 days", "value": "20/20"}, {"measurement": "SARS-CoV-2 negative patients/Total", "setting": "SARS-CoV-2; day 10, Groups 3/4: Kaletra, IFN a2b + IFN y without/with peptide 2 mg/Kg s.c. 5 days", "value": "20/20"}, {"measurement": "SARS-CoV-2 negative patients/Total", "setting": "SARS-CoV-2; day 14, Groups 1/2: Kaletra, Heberon Alpha R without/with peptide 2 mg/Kg s.c. 5 days", "value": "20/20"}, {"measurement": "SARS-CoV-2 negative patients/Total", "setting": "SARS-CoV-2; day 14, Groups 3/4: Kaletra, IFN a2b + IFN y without/with peptide 2 mg/Kg s.c. 5 days", "value": "20/20"}, {"measurement": "SARS-CoV-2 negative patients/Total", "setting": "SARS-CoV-2; day 20, Groups 1/2: Kaletra, Heberon Alpha R without/with peptide 2 mg/Kg s.c. 5 days", "value": "20/20"}, {"measurement": "SARS-CoV-2 negative patients/Total", "setting": "SARS-CoV-2; day 20, Groups 3/4: Kaletra, IFN a2b + IFN y without/with peptide 2 mg/Kg s.c. 5 days", "value": "20/20"}, {"measurement": "patients negative for SARS-CoV-2", "setting": "SARS-CoV-2; fourth day after treatment onset, Group 2 (peptide + Kaletra, chloroquine, Heberon Alpha R)", "value": 80, "unit": "%"}, {"measurement": "patients negative for SARS-CoV-2", "setting": "SARS-CoV-2; fourth day after treatment onset, Group 4 (peptide + Kaletra, chloroquine, IFN a2b + IFN y)", "value": 85, "unit": "%"}, {"measurement": "patients negative for SARS-CoV-2", "setting": "SARS-CoV-2; sixth day after treatment onset, Group 2", "value": 100, "unit": "%"}, {"measurement": "patients negative for SARS-CoV-2", "setting": "SARS-CoV-2; sixth day after treatment onset, Group 4", "value": 100, "unit": "%"}, {"measurement": "Kd", "setting": "NS1-D2 (Dengue)", "value": 769, "unit": "nM"}, {"measurement": "Rmax", "setting": "NS1-D2 (Dengue)", "value": 1.86, "unit": "RU"}, {"measurement": "interaction", "setting": "NS1-D2 (Dengue)", "value": "showed interaction"}, {"measurement": "kd", "setting": "NS1-D2 (Dengue)", "value": "1.02e-05", "unit": "s⁻¹"}, {"measurement": "kon", "setting": "NS1-D2 (Dengue); read-out: ka", "value": 13.3, "unit": "M⁻¹ s⁻¹"}, {"measurement": "interaction (signal RU)", "setting": "Protein N (SARS-CoV-2); 10-200 nM", "value": "significant increase in signal"}, {"measurement": "Kd", "setting": "Protein N (SARS-CoV-2); analyte 10-200 nM", "value": 3.58, "unit": "nM"}, {"measurement": "kd", "setting": "Protein N (SARS-CoV-2); analyte 10-200 nM", "value": 0.000972, "unit": "s⁻¹"}, {"measurement": "Rmax", "setting": "Protein N (SARS-CoV-2); analyte 10-200 nM, biotinylated peptide on SA chip", "value": 329, "unit": "RU"}, {"measurement": "kon", "setting": "Protein N (SARS-CoV-2); analyte 10-200 nM, read-out: ka", "value": 271000, "unit": "M⁻¹ s⁻¹"}]}]}
